This is an account of results in US20110300234A1, “Methods of Treating Tumor Cells Using RHCC Protein, Fragment or Variant” (priority 2008, published 2011).

No end group written: not given here.

What is called IC50 is the concentration that inhibits the measured activity by half.

Series [1] relates to A2780cis resistant ovarian carcinoma sub-line. Kind of series: Fluorometric microculture cytotoxicity assay (FMCA). It is filed as cell-based, human. Particulars: FMCA 72 hr, highest concentration tested 10 μM, read-out: IC50 (95% confidence interval). On the procedure:
(§1) FaDu is grown in DMEM and 10% heat-inactivated FBS, 0.1 mM MEM non-essential amino acids, 1.2 mM sodium pyruvate, 24 mM HEPES, with penicillin and streptomycin. MDA 231, a breast cancer cell line, RPMI 8226, a myeloma cell line, its resistant sub-line 8226/Dox40, NCI-H69, a small lung cancer cell line, its resistant sub-line H69AR, ACHN, a primary resistant renal adenocarcinoma, the ovarian carcinoma cell line A2780, and its resistant sub-line, A2780-Cis, are all grown in RPMI-1640 with 10% heat-inactivated FCS, 2 mM glutamine, penicillin and streptomycin. hTERT-RPE1 a normal epithelial telomerase immortalized line is grown in DMEM nutrient mixture F-12 Ham with 10% heat-inactivated FCS, 2 mM glutamine, penicillin and streptomycin. Tumor cells obtained from 3 ovarian carcinoma patients (OC1-OC3) after ethical approval (Uppsala University ethical committee) are isolated by collagenase dispersion and Percoll density gradient centrifugation (GE Healthcare Life Sciences, Uppsala, Sweden) (see Csoka et al, Gynecol. Oncol., 54(2):163-70 (1994)). […] For experiments, frozen cells are thawed, washed twice and kept in RPMI 1640.
(§2) Microtitre plates (Nunc, Roskilde, Denmark) are prepared with 20 μl/well of drug solution 10 times the desired concentration. To evaluate the cytotoxic activity, the drug plates are seeded with 2×10^4 cells/180 μl/well. A column without drugs serves as a control, and a column with medium serves as a blank FMCA is based on measurements of fluorescence generated from hydrolysis of fluorescein diacetate (FDA) to fluorescein by cells with intact plasma membrane (see Larsson et al, Int. J. Cancer, 50(2):177-85 (1992)). The plates are incubated at 37° C. for 72 hr, washed in PBS, whereafter FDA (dissolved in PBS, 10 μg/ml) is added at 100 μl/well. Plates are then incubated for 50 min, and fluorescence/well is measured at 538 nm in a scanning fluorometer (Fluoroscan II, Labsystems Oy, Helsinki, Finland). Fluorescence is proportional to the number of viable cells/well. Quality criteria for successful analysis includes a fluorescence signal in control wells of more than 5 times mean blank value and a mean coefficient of variation in control wells of less than 30%. Experiments were repeated 3 times.
(§3) FMCA data is processed by GraphPad Prism (GraphPad Software, Inc. San Diego, Calif.) with non-linear regression to a standard sigmoidal dose-response model. Zero and 100% cell survival are set as the maximum effect and the baseline, and IC50 (inhibitory concentration 50%) is estimated. For drugs not resulting in 50% reduction of cell survival, the IC50 was set to>the highest concentration tested.

Series [2] deals with MDA 231 breast cancer cell line. The description is as above. Particulars: MDA 231, FMCA 72 hr, cisplatin concentration; read-out: IC50 (95% confidence interval). It is filed as cell-based, human. On the procedure:
as §1, §2, §3

Series [3] deals with H69AR resistant small-cell lung cancer sub-line. Described as above. It counts as cell-based, human. The settings on record: FMCA 72 hr, cisplatin concentration, read-out: IC50 (95% confidence interval). On the procedure:
as §1, §2, §3

Series [4] relates to FaDu head and neck squamous cell carcinoma cell line. The series is described as above. It counts as cell-based, human. The settings on record: FMCA 72 hr, cisplatin concentration, read-out: IC50 (95% confidence interval). The procedure:
as §1, §2, §3

The test system of series [5] is RPMI 8226/S myeloma cell line. Described as above. Particulars: FMCA 72 hr, cisplatin concentration, read-out: IC50 (95% confidence interval). It counts as cell-based, human. On the procedure: as §1, §2, §3
Series [6] has as its system ACHN renal adenocarcinoma cell line. Described as above. The settings on record: FMCA 72 hr, cisplatin concentration, read-out: IC50 (95% confidence interval). It counts as cell-based, human. On the procedure:
as §1, §2, §3

Series [7] relates to NCI-H69 small-cell lung cancer cell line. The series is described as above. The settings on record: NCI-H69, FMCA 72 hr, highest concentration tested 10 μM; read-out: IC50 (95% confidence interval). It counts as cell-based, human. The procedure:
as §1, §2, §3

Series [8] has as its system 8226/dox40 resistant myeloma sub-line. The series is described as above. It is filed as cell-based, human. Particulars: 8226/dox40, FMCA 72 hr, cisplatin concentration; read-out: IC50 (95% confidence interval). The procedure:
as §1, §2, §3

For series [9], the system named is A2780 ovarian carcinoma cell line. Described as above. It counts as cell-based, human. The settings on record: A2780, FMCA 72 hr, highest concentration tested 10 μM; read-out: IC50 (95% confidence interval). The procedure:
as §1, §2, §3

Series [10] concerns h-TERT-RPE1 normal epithelial telomerase immortalized cell line. Described as above. The settings on record: h-TERT-RPE1, FMCA 72 hr, highest concentration tested 10 μM; read-out: IC50 (95% confidence interval). It counts as cell-based, human.
Procedure: Microtitre plates (Nunc, Roskilde, Denmark) are prepared with 20 μl/well of drug solution 10 times the desired concentration. […] Fluorescence is proportional to the number of viable cells/well. Quality criteria for successful analysis includes a fluorescence signal in control wells of more than 5 times mean blank value and a mean coefficient of variation in control wells of less than 30%. Experiments were repeated 3 times.
In series [11] the test system is FaDu-cells s.c. in SCID-mice. Kind of series: In vivo tumor reduction assay. Details: species or system mouse. An excerpt: Mice are palpated and weighed 3 times/week, and euthanized if the tumor diameter exceeded 10 mm or if weight decreased below 80% of starting weight, according to ethical guidelines.
Series [12] deals with RHCC-specific antibodies in Balb/c-mice. Kind of series: ELISA of antibody response to RHCC in sera. Particulars: 14 days after i.v. 0.4 or 0.2 mg RHCC. It is filed as in vivo, mouse. The procedure:
The antibody response to RHCC in sera from Balb/c-mice collected 14 days after i.v. injection of 0.4 or 0.2 mg RHCC (2 mice/group), or 0.1 M NaCl (one mouse), is measured by ELISA. Microtitre plates (BD Biosciences, San Diego, Calif., USA) are coated with 5 μg/ml RHCC in 0.1 M carbonate-buffer pH 9.6 per well o.n. at 4° C. Plates are blocked in blocking solution (5% milk powder, 0.2% Tween in PBS) for 1 hr at room temperature. Serial dilutions of mouse sera in blocking solution (1:50-1:1350) is added in duplicates to the wells. After 1 hr at room temperature, plates are washed and incubated with secondary alkaline phosphatase (AP) conjugated goat-anti mouse IgG antibody (Sigma-Aldrich, Stockholm, Sweden). Plates are washed and developed with nitrophenylphosphate (pNPP) (Sigma-Aldrich, Stockholm, Sweden) and absorbance is measured at 405 nm in a VersaMax microplate reader (Molecular Devices, Sunnyvale, Calif., USA).

For series [13] the following is noted: background statement; cited from earlier work.
The subject of series [14] is IFNγ-secreting splenocytes of Balb/c-mice. Briefly: IFN-γ EliSpot assay of splenocytes after RHCC injection. The settings on record: 7 days after i.v. 0.4 or 0.2 mg RHCC.
The next series concerns Balb/c mice. Kind of series: Tolerability in mice after RHCC injection. The settings on record: after injection with endotoxin purified RHCC.
Series [15] has as its system primary human tumor cells from ovarian carcinoma patients (OC1-OC3). Briefly: FMCA in primary human tumor cells. It counts as cell-based. Particulars: cell lines and patient samples tested. The procedure:
(§4) FaDu is grown in DMEM and 10% heat-inactivated FBS, 0.1 mM MEM non-essential amino acids, 1.2 mM sodium pyruvate, 24 mM HEPES, with penicillin and streptomycin. […]
as §2, with “To evaluate the cytotoxic activity, the drug plates are seeded with 2×10^4 cells/180 μl/well.” left out, “The plates are incubated at 37° C. for 72 hr, washed in PBS, whereafter FDA (dissolved in PBS, 10 μg/ml) is added at 100 μl/well.” left out, “Experiments were repeated 3 times.” left out

The next series deals with murine dendritic cells. Kind of series: Dendritic cell (DC) maturation assay. It is filed as cell-based, mouse. The settings on record: 50 μg/ml RHCC, 24 hr, vs unstimulated cells. The procedure:
Murine bone marrow-derived dendritic cells (BMDCs) are generated according to Lutz et al, J. Immunol. Methods, 223(1):77-92 (1999), and murine splenic DCs are purified using CD11c (N418) MicroBeads (Miltenyi Biotec, Auburn, Calif., USA) according to the manufacturer. DCs are seeded in 24-well plates (BD Biosciences, San Diego, Calif., USA) at 10^6 cells/ml in R10 medium and mixed with 50 μg/ml RHCC. LPS 1 μg/ml (Sigma-Aldrich, Stockholm, Sweden) is used as positive control. After 24 hr stimulation, DCs are stained with PE-conjugated antibodies to CD40, CD80 and CD86 and FITC-conjugated antibody to MHC Class II I-Ab (BD Biosciences Pharmingen, San Diego, Calif., USA) 30 min at 4° C., washed twice in PBS with 0.1% BSA and analyzed by flow cytometry. IL-12 production is analyzed by ELISA according to the manufacturer (Mabtech, Nacka, Sweden). Plates are coated with 2 μg/ml of anti-IL-12 capture antibody o.n, then after blocking, 100 μl of BMDC culture supernatants are added at dilutions 1:1-1:128 for 2 hr at RT. Plates are thereafter incubated with biotinylated anti-IL-12 antibody 1 hr at room temperature, and the response is visualized as above for ELISA.

Another series concerns 10 cell lines. Kind of series: FMCA, statements over the panel of cell lines. Particulars: tested concentrations, starting at 3.48 μM, all cell types. It is filed as cell-based, human. The procedure:
as §4
as §2, with “To evaluate the cytotoxic activity, the drug plates are seeded with 2×10^4 cells/180 μl/well.” left out, “The plates are incubated at 37° C. for 72 hr, washed in PBS, whereafter FDA (dissolved in PBS, 10 μg/ml) is added at 100 μl/well.” left out, “Experiments were repeated 3 times.” left out

`N.N.[Cl][Pt][Cl]` [Cisplatin, Cis-diammine-dichloroplatinum (II)]: the IC50 in [1] was > 10 µM; in series [2] it was > 10 µM; in [3], 8.5 µM; in series [4] it was 7.9 µM; in series [5] it was 7.44 µM; in series [6] it was 6.9 µM. The IC50 in series [7], in series [8], in [9] and in [10] was > 10 µM each time. For the same compound, in series [11] (i.v., during the experiment), the alteration in weight entry was “no significant alteration in weight”.

Take “RHCC: Recombinant Right-Handed Coiled-Coil protein tetramer of Tetrabrachion (Staphylothermus marinus), strands of SEQ ID NO:1, purified from endotoxins (GSIINETADDIVYRLTVIIDDRYESLKNLITLRADRLEMIINDNVSTILASI; also: tetramer)”: the “RHCC-specific antibody response (ELISA)” value in series [12] is “no significant antibody response”. Moreover, the “temperature at which stable” value in series [13] is “over 100 °C”. For the same compound, the “IFNγ-EliSpot T cell response” value in [14] is “slight production of specific CD8+ T cells”. The “signs of illness (viability, weight)” value in the series with Balb/c mice is on record as “no signs of illness”. Besides, the “cytotoxic effect of RHCC alone” value in [15] is given as “no cytotoxic effect”. In addition, the “tumor reduction, RHCC alone” value in series [11] (0.675 mg RHCC, separate experiment) is “no effect on tumor reduction”. Also, in the series with murine dendritic cells, the CD40 expression result is listed as “weak increase”; the IL-12 production entry is given as “weak increase”; the “maturation markers CD80, CD86 and MHC Class II” value is “no increase”. Further, the “toxicity of RHCC alone” value in the series with 10 cell lines is given as “nontoxic”.
